Measured values taken from patent US20240279215A1 (Cytokinetics, Incorporated, priority 2022, published 2024).

The compounds below were run against human NAMPT (Homo sapiens (Human), UniProt P43490) (assay: NMN fluorescence biochemical assay (human recombinant NAMPT enzyme assay)).
Procedure, shortened: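 Activation of recombinant human NAMPT (6 nM) was tested with 2.5 mM ATP, 20 μM PRPP and 150 μM nicotinamide in 50 mM HEPES pH 7.2 for 60 min at ambient temperature. NMN was derivatized with acetophenone/KOH/formic acid and read by fluorescence (355/460 nm) after 40 min.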

Chain of human NAMPT (P43490 whole entry): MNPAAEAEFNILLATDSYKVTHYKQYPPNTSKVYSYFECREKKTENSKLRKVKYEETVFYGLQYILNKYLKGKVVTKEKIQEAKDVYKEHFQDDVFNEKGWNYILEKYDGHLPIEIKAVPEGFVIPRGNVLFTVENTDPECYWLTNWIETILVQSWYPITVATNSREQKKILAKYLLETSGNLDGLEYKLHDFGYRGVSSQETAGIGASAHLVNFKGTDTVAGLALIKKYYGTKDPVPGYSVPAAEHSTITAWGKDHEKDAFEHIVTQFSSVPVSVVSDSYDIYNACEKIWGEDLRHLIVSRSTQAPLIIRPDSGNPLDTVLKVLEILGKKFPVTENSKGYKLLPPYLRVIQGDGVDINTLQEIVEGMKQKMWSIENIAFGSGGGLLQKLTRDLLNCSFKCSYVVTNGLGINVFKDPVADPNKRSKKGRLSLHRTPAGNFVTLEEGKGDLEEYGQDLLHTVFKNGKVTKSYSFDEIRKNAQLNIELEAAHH

| AC1.4 Human [µM] | EC50 [µM] | SMILES |
| --- | --- | --- |
| 3.15 | 4.8 | O=C(Nc1ccc(CNC(=O)c2cncc(F)c2)cc1)OCc1ccc(Cl)cc1 [Compound 271, (4-chlorophenyl)methyl N-(4-{[(5-fluoropyridin-3-yl)formamido]methyl}phenyl)] |
| 3.18 | 10.9 | O=C(Nc1ccc(CNC(=O)c2ccccn2)cc1)OCc1ccc(Cl)cc1 [Compound 272, (4-chlorophenyl)methyl N-{4-[(pyridin-2-ylformamido)methyl]phenyl}carbamate] |
| 3.21 | 14.4 | O=C(Cc1ccc(NC(=O)OCc2ccc(Cl)cc2)cc1)Nc1cncc(F)c1 [Compound 273, (4-chlorophenyl)methyl N-(4-{[(5-fluoropyridin-3-yl)carbamoyl]methyl}phenyl)carbamate] |
| 3.32 | 6.15 | O=C(Nc1ccc(CC(=O)N2CCC(F)(F)CC2)cc1)OCc1ccc(Cl)cc1 [Compound 274, (4-chlorophenyl)methyl N-{4-[2-(4,4-difluoropiperidin-1-yl)-2-oxoethyl]phenyl}carbamate] |
| 3.32 | 12.6 | Cc1ccc(C(=O)NCc2ccc(NC(=O)OCc3ccc(OC(F)F)cc3)cc2)cn1 [Compound 275, (4-(difluoro-13-methyl)phenyl)methyl (4-((6-methylnicotinamido)methyl)phenyl)carbamate] |
| 3.32 | 18.3 | Cc1coc(C(=O)NCc2ccc(NC(=O)OCc3ccc(Cl)cc3)cc2)n1 [Compound 276, (4-chlorophenyl)methyl N-(4-{[(4-methyl-1,3-oxazol-2-yl)formamido]methyl}phenyl)carbamate] |
| 3.36 | 39.9 | CN1CC(C(=O)NCc2ccc(NC(=O)OCc3ccc(Cl)cc3)cc2)CC1=O (stereo not drawn) [Compound 277, (4-chlorophenyl)methyl N-(4-{[(1-methyl-5-oxopyrrolidin-3-yl)formamido]methyl}phenyl)carbamate] |
| 3.40 | 17.4 | CN1CC(=O)NC[C@@H]1c1ccc(NC(=O)OCc2ccc(F)cc2)cc1 [Compound 278, 4-fluorobenzyl (S)-(4-(1-methyl-5-oxopiperazin-2-yl)phenyl)carbamate] |
| 3.43 | 29 | O=C(Nc1ccc(Cc2ncccn2)cc1)OCc1ccc(Cl)cc1 [Compound 279, 4-chlorobenzyl (4-(pyrimidin-2-ylmethyl)phenyl)carbamate] |
| 3.51 | 14.5 | CO[C@H]1CC[C@@H](NC(=O)Cc2ccc(NC(=O)OCc3ccc(Cl)cc3)cc2)CC1 [Compound 280, (4-chlorophenyl)methyl N-[4-({[(1s,4s)-4-methoxycyclohexyl]carbamoyl}methyl)phenyl]carbamate] |
| 3.56 | 46.9 | CC(=O)N1CCOC(c2ccc(NC(=O)OCc3ccc(Cl)cc3)cc2)C1 (stereo not drawn) [Compound 281, (4-chlorophenyl)methyl N-[4-(4-acetylmorpholin-2-yl)phenyl]carbamate] |
| 3.61 | 47.9 | COC1CCN(C(=O)Cc2ccc(NC(=O)OCc3ccc(Cl)cc3)cc2)CC1 [Compound 283, (4-chlorophenyl)methyl N-{4-[2-(4-methoxypiperidin-1-yl)-2-oxoethyl]phenyl}carbamate] |
| 3.72 | 19.2 | CN1CCN(Cc2ccc(NC(=O)OCc3ccc(Cl)cc3)cc2)CC1=O [Compound 284, (4-chlorophenyl)methyl N-{4-[(4-methyl-3-oxopiperazin-1-yl)methyl]phenyl}carbamate] |
| 3.78 | 9.55 | O=C(Nc1ccc(CNC(=O)C2CCOCC2)cc1)OCc1ccc(Cl)cc1 [Compound 285, (4-chlorophenyl)methyl N-{4-[(oxan-4-ylformamido)methyl]phenyl}carbamate] |
| 3.79 | 14.2 | O=C(Nc1ccc(CNC(=O)N2CCCCC2)cc1)OCc1ccc(Cl)cc1 [Compound 286, (4-chlorophenyl)methyl N-{4-[(piperidine-1-carbonylamino)methyl]phenyl}carbamate] |
| 3.81 | 20.6 | O=C(Nc1ccc(CC(=O)N2CCCC[C@@H]2CO)cc1)OCc1ccc(Cl)cc1 [Compound 287, (4-chlorophenyl)methyl N-(4-{2-[(2R)-2-(hydroxymethyl)piperidin-1-yl]-2-oxoethyl}phenyl)carbamate] |
| 3.88 | 3.45 | CC(C)(C)OC(=O)N1CC(OCc2ccc(NC(=O)OCc3ccc(Cl)cc3)cc2)C1 [Compound 288, tert-butyl 3-{[4-({[(4-chlorophenyl)methoxy]carbonyl}amino)phenyl]methoxy}azetidine-1-carboxylate] |
| 3.95 | 50.3 | CCc1cc(C(=O)N(C)Cc2ccc(NC(=O)OCc3ccc(Cl)cc3)cc2)n(C)n1 [Compound 289, (4-chlorophenyl)methyl N-(4-{[1-(5-ethyl-2-methylpyrazol-3-yl)-N-methylformamido]methyl}phenyl)carbamate] |

| AC1.4 Human [µM] | EC50 [µM] | SMILES |
| --- | --- | --- |
| 3.95 | 16.9 | C[C@H](NC(=O)c1ocnc1C1CC1)c1ccc(NC(=O)OCc2ccc(Cl)cc2)cc1 [Compound 290, (4-chlorophenyl)methyl N-{4-[(1S)-1-[(4-cyclopropyl-1,3-oxazol-5-yl)formamido]ethyl]phenyl}carbamate] |
| 3.97 | 38.2 | COc1ccc(COC(=O)Nc2ccc(COC3CCN(C4COC4)CC3)cc2)cc1 [Compound 291, 4-methoxybenzyl (4-(((1-(oxetan-3-yl)piperidin-4-yl)oxy)methyl)phenyl)carbamate] |
| 4.12 | 20 | Cc1ccc(Cc2ccc(NC(=O)OCc3ccc(Cl)cc3)cc2)cn1 [Compound 292, 4-chlorobenzyl (4-((6-methylpyridin-3-yl)methyl)phenyl)carbamate] |
| 4.16 | 18.4 | COCCN1CCC(Cc2ccc(NC(=O)OCc3cnco3)cc2)CC1 [Compound 293, oxazol-5-ylmethyl (4-((1-(2-methoxyethyl)piperidin-4-yl)methyl)phenyl)carbamate] |
| 4.19 | 46.5 | Cc1cnc(C(=O)NCc2ccc(NC(=O)OCc3ccc(Cl)cc3)cc2)o1 [Compound 294, (4-chlorophenyl)methyl N-(4-{[(5-methyl-1,3-oxazol-2-yl)formamido]methyl}phenyl)carbamate] |
| 4.57 | 28 | Cn1ccc(CC(=O)NCc2ccc(NC(=O)OCc3ccc(Cl)cc3)cc2)n1 [Compound 295, (4-chlorophenyl)methyl N-(4-{[2-(1-methylpyrazol-3-yl)acetamido]methyl}phenyl)carbamate] |
| 4.62 | 14.3 | CC(O)(c1ccncc1)c1ccc(NC(=O)OCc2cnco2)cc1 (stereo not drawn) [Compound 296, oxazol-5-ylmethyl (4-(1-hydroxy-1-(pyridin-4-yl)ethyl)phenyl)carbamate] |
| 4.65 | 19.8 | O=C(Cc1ncco1)NCc1ccc(NC(=O)OCc2ccc(Cl)cc2)cc1 [Compound 297, (4-chlorophenyl)methyl N-(4-{[2-(1,3-oxazol-2-yl)acetamido]methyl}phenyl)carbamate] |
| 4.66 | 20.4 | CN(Cc1ccc(NC(=O)OCc2ccc(Cl)cc2)cc1)C(=O)c1ccc(C(F)F)nc1 [Compound 298, (4-chlorophenyl)methyl N-[4-({1-[6-(difluoromethyl)pyridin-3-yl]-N-methylformamido}methyl)phenyl]carbamate] |
| 4.67 | 11.6 | O=C(Nc1ccc(Cc2ccncc2)cc1)OCc1cnsc1 [Compound 299, isothiazol-4-ylmethyl (4-(pyridin-4-ylmethyl)phenyl)carbamate] |
| 4.81 | 26.4 | O=C(Cc1ccc(NC(=O)OCc2ccc(Cl)cc2)cc1)NCc1cnccn1 [Compound 300, (4-chlorophenyl)methyl N-(4-{[(pyrazin-2-ylmethyl)carbamoyl]methyl}phenyl)carbamate] |
| 4.81 | 26.8 | CC(C)n1nccc1C(=O)NCc1ccc(NC(=O)OCc2ccc(Cl)cc2)cc1 [Compound 301, (4-chlorophenyl)methyl N-(4-{[(2-isopropylpyrazol-3-yl)formamido]methyl}phenyl)carbamate] |
| 4.86 | 17.2 | CC(C)Cn1nccc1C(=O)NCc1ccc(NC(=O)OCc2ccc(Cl)cc2)cc1 [Compound 302, (4-chlorophenyl)methyl N-[4-({[2-(2-methylpropyl)pyrazol-3-yl]formamido}methyl)phenyl]carbamate] |
| 4.87 | 19.4 | O=C(Nc1ccc(Cc2cnccn2)cc1)OCc1ccc(Cl)cc1 [Compound 303, 4-chlorobenzyl (4-(pyrazin-2-ylmethyl)phenyl)carbamate] |
| 4.93 | 23.5 | CC(C)N1CC(=O)NC[C@@H]1c1ccc(NC(=O)OCc2ccc(Cl)cc2)cc1 [Compound 304, 4-chlorobenzyl (S)-(4-(1-isopropyl-5-oxopiperazin-2-yl)phenyl)carbamate] |
| 4.95 | 22.9 | O=C(Nc1ccc(CNC(=O)c2ccc(F)cn2)cc1)OCc1ccc(Cl)cc1 [Compound 305, (4-chlorophenyl)methyl N-(4-{[(5-fluoropyridin-2-yl)formamido]methyl}phenyl)carbamate] |
| 4.97 | 13.9 | N#Cc1ccc(COC(=O)Nc2ccc(Cc3ccncc3)cc2)cc1 [Compound 306, 4-cyanobenzyl (4-(pyridin-4-ylmethyl)phenyl)carbamate] |

| SMILES | AC1.4 Human [µM] | EC50 [µM] |
| --- | --- | --- |
| O=C(Nc1ccc(CC(=O)N2CCN(CC(F)F)CC2)cc1)OCc1ccc(Cl)cc1 [Compound 282, (4-chlorophenyl)methyl N-(4-{2-[4-(2,2-difluoroethyl)piperazin-1-yl]-2-oxoethyl}phenyl)carbamate] | 3.57 | 19.1 |
